The values that follow come from ChEMBL document CHEMBL4000202, “Identification of a diverse synthetic abietane diterpenoid library for anticancer activity” (Bioorg Med Chem Lett, 2017).

One test deals with MDA-MB-231. The test is described as follows: Cytotoxic activity against human MDA-MB-231 cells assessed as reduction in cell viability. In kind it is functional, cell-based.
The test system of a further test is MCF7. As to the kind of experiment: Cytotoxic activity against human MCF7 cells assessed as reduction in cell viability. The class given is functional, cell-based.
For test [1], the system named is A549. As to the kind of experiment: Induction of apoptosis in human A549 cells assessed as increase in Bax level after 36 hrs by Western blot method. The class given is functional, cell-based.
Test [2] has as its system A549. As to the kind of experiment: Induction of apoptosis in human A549 cells assessed as ROS generation at 1 to 100 uM after 18 hrs. The class given is functional, cell-based.
The subject of another test is LNCaP. The test is described as follows: Cytotoxic activity against human LNCAP cells assessed as reduction in cell viability. In kind it is functional, cell-based.
Test [3] concerns A549. The test is described as follows: Induction of apoptosis in human A549 cells assessed as reduction in mitochondrial membrane potential at 5 uM after 24 hrs using JC-1 dye based spectrofluorometry. The class given is functional, cell-based.
Test [4] deals with A549. The test is described as follows: Induction of apoptosis in human A549 cells assessed as early apoptotic cells at 5 uM after 36 hrs by Annexin V/propidium iodide based flow cytometric analysis (reference value: 0.5%). In kind it is functional. Background: In flow cytometry, cells or beads pass a laser one at a time.
Test [5] concerns A549. As to the kind of experiment: Potency index, ratio of 5-FU IC50 to compound IC50 for human A549 cells. In kind it is functional.
The test system of test [6] is A549. As to the kind of experiment: Induction of apoptosis in human A549 cells assessed as increase in cytochrome c level after 36 hrs by Western blot method. The class given is functional, cell-based. For orientation: In western blotting, separated proteins are transferred to a membrane and probed.
For the next test, the system named is PC-3. The test is described as follows: Cytotoxic activity against human PC3 cells assessed as reduction in cell viability after 72 hrs by SRB assay. In kind it is functional, cell-based. The following applies: PC-3, 72 h.
The test system of test [7] is A549. As to the kind of experiment: Induction of apoptosis in human A549 cells assessed as necrotic cells at 5 uM after 36 hrs by Annexin V/propidium iodide based flow cytometric analysis (reference value: 0.2%). In kind it is functional.
The subject of another test is L02. The test is described as follows: Cytotoxic activity against human HL7702 cells. The class given is cell-based.
Another test concerns SK-OV-3. As to the kind of experiment: Cytotoxic activity against human SKOV3 cells assessed as reduction in cell viability after 72 hrs by SRB assay. The following applies: SK-OV-3, 72 h. In kind it is functional, cell-based. (In SRB staining, fixed cells bind dye roughly in proportion to their protein.)
The subject of another test is SK-BR-3. As to the kind of experiment: Cytotoxic activity against human SKBR3 cells assessed as reduction in cell viability. In kind it is functional, cell-based.
Test [8] has as its system A549. The test is described as follows: Induction of apoptosis in human A549 cells assessed as decrease in Bcl-2 level after 36 hrs by Western blot method. In kind it is functional, cell-based.
Test [9] has as its system A549. The test is described as follows: Induction of apoptosis in human A549 cells assessed as genomic DNA fragmentation at 5 uM after 24 hrs by FITC/DAPI staining based TUNEL assay. The class given is functional, cell-based.
In test [10] the test system is A549. As to the kind of experiment: Effect on tubulin in human A549 cells at 1 to 100 uM after 18 hrs. In kind it is cell-based.
Test [11] deals with A549. As to the kind of experiment: Induction of apoptosis in human A549 cells assessed as late apoptotic cells at 5 uM after 36 hrs by Annexin V/propidium iodide based flow cytometric analysis (reference value: 2.3%). In kind it is functional.
Test [12] relates to A549. The test is described as follows: Induction of apoptosis in human A549 cells assessed as decrease in PARP level after 36 hrs by Western blot method. The class given is functional, cell-based.
For test [13], the system named is A549. The test is described as follows: Cytotoxic activity against human A549 cells assessed as reduction in cell viability after 72 hrs by SRB assay. In kind it is functional, cell-based. The following applies: A549, 72 h.
Test [14] has as its system A549. The test is described as follows: Induction of apoptosis in human A549 cells assessed as increase in cleaved caspase-3 level after 36 hrs by Western blot method. The class given is functional, cell-based.
A further test relates to HFF. The test is described as follows: Cytotoxic activity against HFF cells assessed as reduction in cell viability. The following applies: Homo sapiens. The class given is cell-based.
For test [15], the system named is A549. As to the kind of experiment: Induction of apoptosis in human A549 cells assessed as increase in cleaved PARP level after 36 hrs by Western blot method. The class given is functional, cell-based.
The subject of another test is HCT-116. The test is described as follows: Cytotoxic activity against human HCT116 cells assessed as reduction in cell viability. In kind it is functional, cell-based.

Calls of active or inactive are those of the source. The rule behind the calls is not given here.

In the case of `CCOCO[C@]12CCC[C@]3(CO1)c1ccc(C(C)C)c(OC)c1C(=O)C[C@@H]23`, the IC50 is 1.1 to 4.5 µM in the test on MDA-MB-231; 1.1 to 4.5 µM in the test on MCF7; 1.1 to 4.5 µM in the test on LNCaP; 2.58 µM in the test with PC-3; 16.1 to 22.4 µM in the test on L02; 1.57 µM with SK-OV-3. In addition, the IC50 was 1.1 to 4.5 µM with SK-BR-3, 1.32 µM in the test with A549 [13], 16.1 to 22.4 µM in the test with HFF and 1.1 to 4.5 µM in the test on HCT-116. For the same compound, the Activity entry is “Dose-dependent effect” with A549 [1]; 1.3% with A549 [4]; “Dose-dependent effect” with A549 [6]; 1.3% in the test on A549 [7]; 15.8% in the test on A549 [11]; “Dose-dependent effect” with A549 [14]. In the test on A549 [15], the Activity entry was “Dose-dependent effect”. Besides, the outcome with A549 [2] and in the test on A549 [10] was inactive. The result in the test with A549 [3], with A549 [8], with A549 [9] and in the test on A549 [12] was Active. Also, in the test on A549 [5], the “Ratio IC50” value stood at 24.
For `C=CCc1ccc2c(c1O)C(=O)C[C@H]1C3=C(CC[C@]21C)C(=O)OC3`, the IC50 came to 68 µM in the test on PC-3, 39.4 µM in the test with SK-OV-3 and 95.8 µM in the test on A549 [13].
Regarding `COc1c(C(C)C)ccc2c1CC[C@H]1C3=C(CC[C@]21CO)C(=O)OC3`, the concentration for half-maximal inhibition (IC50) with PC-3, in the test with SK-OV-3 and in the test on A549 [13] was over 100 µM in each case.
Consider `COC(=O)[C@]1(C)CCC[C@]2(C)c3ccc(C(C)C)c(OC)c3CC[C@@H]12`, for which the IC50 in the test on PC-3 was 59.9 µM; with SK-OV-3 it was 65.2 µM; in the test with A549 [13], over 100 µM.
On to `COc1c(C(C)C)ccc2c1CC[C@H]1[C@@H](O)CCC[C@]21C`, for which the IC50 in the test on PC-3 is 98.2 µM; in the test on SK-OV-3 it was over 100 µM; in the test on A549 [13], over 100 µM.
For the compound `COc1c(C(C)C)ccc2c1CC=C1C3=C(CCC12C)C(=O)OC3` (single isomer, unassigned), the results for the concentration for half-maximal inhibition (IC50) with PC-3, in the test on SK-OV-3 and in the test with A549 [13] were 48 µM, 24 µM and 74.9 µM, respectively.
On the same counts, the results for `COc1c(C(C)C)ccc2c1CC[C@H]1C(=O)CCC[C@]21C` are over 100 µM, over 100 µM and over 100 µM.
With `COc1c(C(C)C)ccc2c1CC[C@H]1c3cocc3CC[C@]21C`, the values for the IC50 with PC-3, in the test with SK-OV-3 and in the test with A549 [13] were 19.3 µM, 21.3 µM and 27.4 µM, respectively.
For `COC(=O)[C@]1(C)CCC[C@]2(C)c3cc([N+](=O)[O-])c(C(C)C)cc3CC[C@@H]12`, the half-maximal inhibitory concentration (IC50) in the test on PC-3 came out at 81.9 µM; in the test on SK-OV-3, 47.8 µM; in the test on A549 [13] it was 89.4 µM.

By IC50 is commonly meant the concentration needed to halve the response being measured.
